Patent publication US10144742B2 (Millennium Pharmaceuticals, Inc., priority 2014, dated 2018)
Read-outs that look alike come from different tables or passages of the source.

Assays:
hNAMPT protein = hNAMPT protein (Homo sapiens (Human), UniProt P43490); assay: NAMPT enzyme assay (TR-FRET/HTRF, BodiPY ligand, anti 6His-Tb); assay type: binding; conditions: for IC50: NAMPT IC50 range class, read-out: IC50; for inhibition at 1 µM: read-out: Percent Inhibition
In short: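 Compound or DMSO was incubated for 1 h at room temperature, protected from light, with BodiPY ligand and hNAMPT labelled by terbium anti-6His antibody. The 520 nm to 486 nm emission ratio after 320 nm excitation gave inhibition versus vehicle, from which concentration-response curves yielded IC50.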

PC3 cells = assay: PC3 growth inhibition (Cell-titer glo, 72 hours); assay type: cell-based; conditions: Homo sapiens, read-out: Percent Inhibition (PC3 growth inhibition); for inhibition at 1.667 µM: compound concentration 1.667 μM
In short: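 Compounds in AIM serum-free medium were applied for 72 h at 37 °C, 5% CO2 to PC3 cells plated overnight from RPMI1640 culture. Luminescence after 10 min CellTiter-Glo, normalised to DMSO, gave % viability at 1 μM or 1.667 μM, or GI50/LD50.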

[1] = PC-3, PC3 cells, 72 hours, Cell-titer glo
[2] = PC-3, compound concentration 1 μM, PC3 cells, 72 hours, Cell-titer glo

hNAMPT protein, sequence (P43490 whole entry): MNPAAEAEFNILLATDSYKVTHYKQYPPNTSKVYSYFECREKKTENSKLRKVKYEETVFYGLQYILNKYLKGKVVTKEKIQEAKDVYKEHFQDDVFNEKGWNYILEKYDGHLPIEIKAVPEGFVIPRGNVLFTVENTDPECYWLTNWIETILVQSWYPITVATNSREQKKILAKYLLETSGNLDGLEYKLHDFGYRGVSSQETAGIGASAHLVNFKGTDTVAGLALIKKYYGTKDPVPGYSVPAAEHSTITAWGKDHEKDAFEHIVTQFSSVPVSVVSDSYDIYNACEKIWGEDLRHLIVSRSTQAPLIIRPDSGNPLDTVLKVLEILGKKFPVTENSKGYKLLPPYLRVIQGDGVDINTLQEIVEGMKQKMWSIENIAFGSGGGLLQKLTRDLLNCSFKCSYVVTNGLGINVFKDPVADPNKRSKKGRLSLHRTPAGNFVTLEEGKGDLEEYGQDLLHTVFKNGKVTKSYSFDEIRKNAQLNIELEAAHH

Cn1cncc1CCNC(=O)c1ccc2nc(N3CCC(N4CCOCC4)CC3)c(-c3ccc(F)cc3)nc2c1 [Compound I-82, 3-(4-Fluorophenyl)-N-[2-(1-methyl-1H-imidazol-5-yl)ethyl]-2-[4-(morpholin-4-yl)piperidin-1-yl]quinoxaline-6-carboxamide] showed an IC50 (hNAMPT protein) of under 100 nM, an inhibition at 1 µM (hNAMPT protein; compound concentration 1 μM) of 98% and an inhibition at 1.667 µM (PC3 cells; [1]) of 2%.
O=C(NCCn1cccn1)c1ccc2nc(-c3ccc(F)cc3)c(-c3ccc(F)cc3)nc2c1 [Compound I-83, 2,3-bis(4-fluorophenyl)-N-[2-(1H-pyrazol-1-yl)ethyl]quinoxaline-6-carboxamide] showed an IC50 (hNAMPT protein) of 2000 to 10000 nM, an inhibition at 1 µM (hNAMPT protein; compound concentration 1 μM) of 33% and an inhibition at 1 µM (PC3 cells; [2]) of 96%.
For CN(CCc1cccnc1)C(=O)c1ccc2nc(-c3ccc(F)cc3)c(-c3ccc(F)cc3)nc2c1 [Compound I-84, 2,3-bis(4-fluorophenyl)-N-methyl-N-[2-(pyridin-3-yl)ethyl]quinoxaline-6-carboxamide], the IC50 (hNAMPT protein) was 2000 to 10000 nM, the inhibition at 1 µM (hNAMPT protein; compound concentration 1 μM) was 17% and the inhibition at 1 µM (PC3 cells; [2]) was 85%.
Work on CC(C)(C)OC(=O)NCc1cccc(-c2nc3cc(C(=O)NCCCn4ccnc4)ccc3nc2-c2ccccc2)c1 [Compound I-85, tert-Butyl [3-(7-{[3-(1H-imidazol-1-yl)propyl]carbamoyl}-3-phenylquinoxalin-2-yl)benzyl]carbamate] yielded an IC50 (hNAMPT protein) of 2000 to 10000 nM, an inhibition at 1 µM (hNAMPT protein) of 25% and an inhibition at 1 µM (PC3 cells; PC-3, 72 h) of 8%.
Work on O=C(NCCOc1cccnc1)c1ccc2nc(Cl)c(-c3ccc(F)cc3)nc2c1 [Compound I-86, 2-chloro-3-(4-fluorophenyl)-N-[2-(pyridin-3-yloxy)ethyl]quinoxaline-6-carboxamide] yielded an IC50 (hNAMPT protein) of under 100 nM, an inhibition at 1 µM (hNAMPT protein; compound concentration 1 μM) of 62% and an inhibition at 1.667 µM (PC3 cells; [1]) of 3%.
Work on O=C(NCCCn1ccnc1)c1ccc2nc(-c3ccccc3)c(N3CCCC(O)C3)nc2c1 (stereo not drawn) [Compound I-87, 3-(3-hydroxypiperidin-1-yl)-N-[3-(1H-imidazol-1-yl)propyl]-2-phenylquinoxaline-6-carboxamide] yielded an IC50 (hNAMPT protein) of 1000 to 2000 nM, an inhibition at 1 µM (hNAMPT protein; compound concentration 1 μM) of 39% and an inhibition at 1 µM (PC3 cells; [2]) of -7%.
Compound O=C(NCCCn1ccnc1)c1ccc2nc(CN3CCOCC3)c(-c3ccccc3)nc2c1 [Compound I-88, N-[3-(1H-imidazol-1-yl)propyl]-2-(morpholin-4-ylmethyl)-3-phenylquinoxaline-6-carboxamide] has an IC50 (hNAMPT protein) of 1000 to 2000 nM, an inhibition at 1 µM (hNAMPT protein; compound concentration 1 μM) of 41% and an inhibition at 1 µM (PC3 cells; [2]) of -7%.
In the case of NS(=O)(=O)c1cccc(-c2nc3ccc(C(=O)NCCCn4ccnc4)cc3nc2-c2ccccc2)c1 [Compound I-89, N-[3-(1H-imidazol-1-yl)propyl]-3-phenyl-2-(3-sulfamoylphenyl)quinoxaline-6-carboxamide], the IC50 (hNAMPT protein) is reported as 100 to 500 nM, the inhibition at 1 µM (hNAMPT protein; compound concentration 1 μM) is reported as 68% and the inhibition at 1 µM (PC3 cells; [2]) is reported as -7%.
O=C(NCCCn1ccnc1)c1ccc2nc(N3CCC(O)C3)c(-c3ccccc3)nc2c1 (stereo not drawn) [Compound I-90, 2-(3-hydroxypyrrolidin-1-yl)-N-[3-(1H-imidazol-1-yl)propyl]-3-phenylquinoxaline-6-carboxamide] was tested, and the IC50 (hNAMPT protein) was 500 to 1000 nM, the inhibition at 1 µM (hNAMPT protein; compound concentration 1 μM) was 54% and the inhibition at 1 µM (PC3 cells; [2]) was -7%.
COc1cccc(-c2nc3cc(C(=O)NCCCc4ncc[nH]4)ccc3nc2N2CCC(N3CCOCC3)CC2)c1 [Compound I-91, N-[3-(1H-imidazol-2-yl)propyl]-3-(3-methoxyphenyl)-2-[4-(morpholin-4-yl)piperidin-1-yl]quinoxaline-6-carboxamide] showed an IC50 (hNAMPT protein) of under 100 nM, an inhibition at 1 µM (hNAMPT protein; compound concentration 1 μM) of 99% and an inhibition at 1.667 µM (PC3 cells; [1]) of 2%.
O=C(NCCCn1ccnc1)c1ccc2nc(-c3ccccn3)c(-c3ccccc3)nc2c1 [Compound I-92, N-[3-(1H-imidazol-1-yl)propyl]-3-phenyl-2-(pyridin-2-yl)quinoxaline-6-carboxamide] was tested, and the IC50 (hNAMPT protein) was 1000 to 2000 nM, the inhibition at 1 µM (hNAMPT protein; compound concentration 1 μM) was 48% and the inhibition at 1 µM (PC3 cells; [2]) was -7%.
O=C(NCCc1cccnc1)c1ccc2nc(-c3ccccc3)c(-c3ccccc3)nc2c1 [Compound I-93, 2,3-diphenyl-N-[2-(pyridin-3-yl)ethyl]quinoxaline-6-carboxamide] gave an IC50 (hNAMPT protein) of 500 to 1000 nM, an inhibition at 1 µM (hNAMPT protein; compound concentration 1 μM) of 52% and an inhibition at 1 µM (PC3 cells; [2]) of 15%.
In the case of O=C(NCCCc1cn[nH]c1)c1ccc2nc(N3CCCCC3)c(-c3ccc(F)cc3)nc2c1 [Compound I-94, 3-(4-fluorophenyl)-2-(piperidin-1-yl)-N-[3-(1H-pyrazol-4-yl)propyl]quinoxaline-6-carboxamide], the IC50 (hNAMPT protein) is reported as under 100 nM, the inhibition at 1 µM (hNAMPT protein; compound concentration 1 μM) is reported as 92% and the inhibition at 1.667 µM (PC3 cells; [1]) is reported as 34%.
With O=C(NCCCn1ccnc1)c1ccc2nc(-c3ccccc3)c(-c3cccc(OC(F)(F)F)c3)nc2c1 [Compound I-95, N-[3-(1H-imidazol-1-yl)propyl]-2-phenyl-3-[3-(trifluoromethoxy)phenyl]quinoxaline-6-carboxamide] the IC50 (hNAMPT protein) was 500 to 1000 nM, the inhibition at 1 µM (hNAMPT protein; compound concentration 1 μM) was 61% and the inhibition at 1 µM (PC3 cells; [2]) was 1%.
O=C(NCCCn1ccnc1)c1ccc2nc(N3CCOCC3)c(-c3ccccc3)nc2c1 [Compound I-96, N-[3-(1H-imidazol-1-yl)propyl]-2-(morpholin-4-yl)-3-phenylquinoxaline-6-carboxamide] was tested, and the IC50 (hNAMPT protein) was 100 to 500 nM, the inhibition at 1 µM (hNAMPT protein; compound concentration 1 μM) was 82% and the inhibition at 1 µM (PC3 cells; [2]) was 0%.
Work on O=C(NCCCn1ccnc1)c1ccc2nc(-c3ccccc3)c(-c3ccc4[nH]ccc4c3)nc2c1 [Compound I-97, N-[3-(1H-imidazol-1-yl)propyl]-3-(1H-indol-5-yl)-2-phenylquinoxaline-6-carboxamide] yielded an IC50 (hNAMPT protein) of 500 to 1000 nM, an inhibition at 1 µM (hNAMPT protein; compound concentration 1 μM) of 58% and an inhibition at 1 µM (PC3 cells; [2]) of 1%.
COc1ccc(-c2nc3ccc(C(=O)NCCCn4ccnc4)cc3nc2-c2ccccc2)cc1 [Compound I-99, N-[3-(1H-imidazol-1-yl)propyl]-2-(4-methoxyphenyl)-3-phenylquinoxaline-6-carboxamide] was tested, and the IC50 (hNAMPT protein) was 100 to 500 nM, the inhibition at 1 µM (hNAMPT protein; compound concentration 1 μM) was 75% and the inhibition at 1 µM (PC3 cells; [2]) was -8%.
For O=C(NCCCn1ccnc1)c1ccc2nc(N3CCCC(O)C3)c(-c3ccccc3)nc2c1 (stereo not drawn) [Compound I-100, 2-(3-hydroxypiperidin-1-yl)-N-[3-(1H-imidazol-1-yl)propyl]-3-phenylquinoxaline-6-carboxamide], the IC50 (hNAMPT protein) was 100 to 500 nM, the inhibition at 1 µM (hNAMPT protein; compound concentration 1 μM) was 85% and the inhibition at 1 µM (PC3 cells; [2]) was -7%.
CS(=O)(=O)C1CCN(c2nc3cc(C(=O)NCCCn4ccnc4)ccc3nc2-c2ccccc2)C1 (stereo not drawn) [Compound I-101, N-[3-(1H-imidazol-1-yl)propyl]-3-[3-(methylsulfonyl)pyrrolidin-1-yl]-2-phenylquinoxaline-6-carboxamide] was tested, and the IC50 (hNAMPT protein) was 2000 to 10000 nM, the inhibition at 1 µM (hNAMPT protein; compound concentration 1 μM) was 16% and the inhibition at 1 µM (PC3 cells; [2]) was 7%.
With O=C(NCCc1ncc[nH]1)c1ccc2nc(Cl)c(-c3ccc(F)cc3)nc2c1 [Compound I-102, 2-chloro-3-(4-fluorophenyl)-N-[2-(1H-imidazol-2-yl)ethyl]quinoxaline-6-carboxamide] the IC50 (hNAMPT protein) was 500 to 1000 nM, the inhibition at 1 µM (hNAMPT protein; compound concentration 1 μM) was 38% and the inhibition at 1.667 µM (PC3 cells; [1]) was over 99%.
O=C(NCCCc1ccnnc1)c1ccc2nc(N3CCCCC3)c(-c3ccc(F)cc3)nc2c1 [Compound I-103, 3-(4-fluorophenyl)-2-(piperidin-1-yl)-N-[3-(pyridazin-4-yl)propyl]quinoxaline-6-carboxamide] showed an IC50 (hNAMPT protein) of under 100 nM, an inhibition at 1 µM (hNAMPT protein; compound concentration 1 μM) of 96% and an inhibition at 1.667 µM (PC3 cells; [1]) of 58%.
Work on O=C(NCCCc1ncc[nH]1)c1ccc2nc(N3CCOCC3)c(-c3ccc(Cl)cc3)nc2c1 [Compound I-104, 3-(4-chlorophenyl)-N-[3-(1H-imidazol-2-yl)propyl]-2-(morpholin-4-yl)quinoxaline-6-carboxamide] yielded an IC50 (hNAMPT protein) of under 100 nM, an inhibition at 1 µM (hNAMPT protein; compound concentration 1 μM) of 100% and an inhibition at 1.667 µM (PC3 cells; [1]) of 2%.
